Patent US9809623B2, “α4β7 peptide monomer and dimer antagonists” (Protagonist Therapeutics, Inc., priority 2014, dated 2017)
Numbered stars: 1 amine (or outer) side, 2 acyl side, 3 side chain; on linkers, the order of the positions; unused ones are H or OH. Bridge positions count the residues as written; N and C are the ends. Square brackets hold non-standard residues; d marks the D form. Peptide text beside a SMILES is read from it. I, II: the chains in the order shown. Diglycolyl = O=C(COCC(=O)[*:2])[*:1]; NMeR = CN[C@@H](CCCNC(=N)N)C(=O)O; Tic = O=C(O)[C@@H]1Cc2ccccc2CN1; Pen = CC(C)(S)[C@H](N)C(=O)O

Target: α4β7 (Homo sapiens, UniProt P13612+P26010)
Sequence (P13612 34-1032): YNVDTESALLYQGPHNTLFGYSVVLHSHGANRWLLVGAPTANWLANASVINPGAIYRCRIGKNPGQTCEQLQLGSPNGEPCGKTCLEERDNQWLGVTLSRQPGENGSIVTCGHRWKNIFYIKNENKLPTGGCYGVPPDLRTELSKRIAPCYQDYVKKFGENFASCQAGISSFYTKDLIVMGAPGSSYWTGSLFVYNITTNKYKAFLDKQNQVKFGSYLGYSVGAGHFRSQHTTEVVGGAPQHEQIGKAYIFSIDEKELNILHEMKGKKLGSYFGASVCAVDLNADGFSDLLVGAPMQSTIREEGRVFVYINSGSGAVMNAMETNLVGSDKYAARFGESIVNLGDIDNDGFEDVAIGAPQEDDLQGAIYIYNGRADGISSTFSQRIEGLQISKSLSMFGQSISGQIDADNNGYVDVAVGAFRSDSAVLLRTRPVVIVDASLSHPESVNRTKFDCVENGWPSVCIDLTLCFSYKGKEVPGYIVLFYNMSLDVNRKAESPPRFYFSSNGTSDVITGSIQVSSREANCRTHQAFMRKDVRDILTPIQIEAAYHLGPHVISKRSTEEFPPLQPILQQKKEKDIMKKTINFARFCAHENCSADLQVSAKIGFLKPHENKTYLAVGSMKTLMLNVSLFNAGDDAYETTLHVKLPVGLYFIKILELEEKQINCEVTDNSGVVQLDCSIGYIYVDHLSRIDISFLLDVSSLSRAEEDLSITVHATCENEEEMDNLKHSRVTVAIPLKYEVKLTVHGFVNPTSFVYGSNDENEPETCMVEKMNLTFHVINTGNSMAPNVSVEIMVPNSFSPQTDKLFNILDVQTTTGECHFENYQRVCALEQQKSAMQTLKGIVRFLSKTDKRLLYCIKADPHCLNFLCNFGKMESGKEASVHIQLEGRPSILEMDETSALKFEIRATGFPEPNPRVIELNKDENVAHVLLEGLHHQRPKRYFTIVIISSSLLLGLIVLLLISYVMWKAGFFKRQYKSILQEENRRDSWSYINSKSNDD
Sequence (P26010 20-798): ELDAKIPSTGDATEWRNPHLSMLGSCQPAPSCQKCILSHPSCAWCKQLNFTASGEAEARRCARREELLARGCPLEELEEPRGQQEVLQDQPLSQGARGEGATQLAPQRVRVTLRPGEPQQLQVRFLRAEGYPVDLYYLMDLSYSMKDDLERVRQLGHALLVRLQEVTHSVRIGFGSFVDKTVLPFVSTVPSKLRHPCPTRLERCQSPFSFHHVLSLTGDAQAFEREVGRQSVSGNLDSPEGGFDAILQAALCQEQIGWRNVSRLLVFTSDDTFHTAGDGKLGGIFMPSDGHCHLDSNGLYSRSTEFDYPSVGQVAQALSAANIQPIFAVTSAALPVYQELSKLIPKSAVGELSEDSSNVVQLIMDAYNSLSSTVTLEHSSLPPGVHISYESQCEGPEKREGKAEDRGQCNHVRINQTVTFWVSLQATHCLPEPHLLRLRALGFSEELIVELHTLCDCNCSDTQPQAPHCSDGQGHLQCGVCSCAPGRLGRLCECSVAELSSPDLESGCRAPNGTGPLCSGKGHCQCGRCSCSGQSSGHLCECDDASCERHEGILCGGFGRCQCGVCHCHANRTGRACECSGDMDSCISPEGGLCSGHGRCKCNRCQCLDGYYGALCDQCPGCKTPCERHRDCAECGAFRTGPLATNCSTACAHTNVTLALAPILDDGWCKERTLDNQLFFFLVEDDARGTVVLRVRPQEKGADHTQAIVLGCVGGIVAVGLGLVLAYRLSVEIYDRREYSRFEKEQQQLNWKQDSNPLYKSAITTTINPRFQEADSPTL
Test: α4β7-MAdCAM Cell Adhesion Assay (RPMI 8866 human cells)
Type: cell-based
Set-up: host or cells: RPMI 8866 human B lymphoblastoid cells
Conditions: Table 3-B, Potency (α4β7); range classes; read-out: α4β7 cell (Hu) IC50
Method: RPMI 8866 human cells (Sigma #95041316) were cultured in RPMI 1640 HEPES medium (Invitrogen #22400-089) supplemented with 10% serum (Fetal Bovine Serum, Invitrogen #16140-071), 1 mM sodium pyruvate (Invitrogen #11360-070), 2 mM L-glutamine (Invitrogen #25030-081) and Penicillin-Streptomycin (Invitrogen #15140-122) at 100 units of penicillin and 100 μg of streptomycin per ml. The cells were washed two times in DMEM medium (ATCC #30-2002) supplemented with 0.1% BSA, 10 mM HEPES pH 7 and 1 mM MnCl2. The cells were re-suspended in supplemented DMEM medium at a density of 4×10^6 cells/ml.
A Nunc MaxiSorp plate was coated with rh MAdCAM-1/Fc Chimera (R&D #6065-MC) at 200 ng per well in 50 ul per well in 1×PBS and incubated at 4° C. overnight. The solution was then removed by shaking, blocked with 250 ul per well PBS containing 1% BSA, and incubated at 37° C. for 1 hr. The solution was removed by shaking. Peptides were diluted by serial dilution in a final volume of 50 ul per well (2× concentration). To each well, 50 ul of cells (200,000 cells) were added and the plate was incubated at 37° C., 5% CO2 for 30-45 min to allow cell adhesion. The wells were washed manually three times (100 ul per wash) with supplemented DMEM. After the final wash, 100 ul/well of supplemented DMEM and 10 ul/well of MTT reagent (ATTC cat#30-1010K) were added. The plate was incubated at 37° C., 5% CO2 for 2-3 hrs until a purple precipitate was visible. 100 ul of Detergent Reagent (ATTC cat#30-1010K) was added to each well. The plate was covered from the light, wrapped in Parafilm to prevent evaporation, and left overnight at room temperature in the dark. The plate was shaken for 5 min and the absorbance at 570 nm was measured. To calculate the dose response, the absorbance value of control wells not containing cells was subtracted from each test well.

Row | SMILES | IC50
1 | CC(=O)N[C@@H]1C(=O)N(C)[C@@H](CCCNC(=N)N)C(=O)N[C@@H](CO)C(=O)N[C@@H](CC(=O)O)C(=O)N[C@@H]([C@@H](C)O)C(=O)N[C@@H](CC(C)C)C(=O)N[C@H](C(=O)N[C@@H](Cc2c[nH]c3ccccc23)C(=O)N[C@H](Cc2ccc(O)cc2)C(=O)N[C@H](CCCCNC(=O)COCC(=O)NCCCC[C@@H](NC(=O)[C@@H](Cc2ccc(O)cc2)NC(=O)[C@H](Cc2c[nH]c3ccccc23)NC(=O)[C@H]2NC(=O)[C@H](CC(C)C)NC(=O)[C@H]([C@@H](C)O)NC(=O)[C@H](CC(=O)O)NC(=O)[C@H](CO)NC(=O)[C@H](CCCNC(=N)N)N(C)C(=O)[C@@H](NC(C)=O)C(C)(C)SSC2(C)C)C(N)=O)C(N)=O)C(C)(C)SSC1(C)C [compound 92] (I: Ac-[Pen][NMeR]SDTL[Pen]W[dY][dK]-NH2 / II: Ac-[Pen][NMeR]SDTL[Pen]W[dY][dK]-NH2; disulfide I:1-I:7, II:1-II:7; linker I:10-II:10 via Diglycolyl) | 0.05 to 0.1 µM
2 | CC(=O)N[C@@H]1C(=O)N(C)[C@@H](CCCNC(=N)N)C(=O)N[C@@H](CO)C(=O)N[C@@H](CC(=O)O)C(=O)N[C@@H]([C@@H](C)O)C(=O)N[C@@H](CC(C)C)C(=O)N[C@H](C(=O)N2Cc3ccccc3C[C@H]2C(=O)N[C@H](CCC(=O)O)C(=O)N[C@H](CCCCNC(=O)COCC(=O)NCCCC[C@@H](NC(=O)[C@@H](CCC(=O)O)NC(=O)[C@@H]2Cc3ccccc3CN2C(=O)[C@@H]2CSSC(C)(C)[C@H](NC(C)=O)C(=O)N(C)[C@@H](CCCNC(=N)N)C(=O)N[C@@H](CO)C(=O)N[C@@H](CC(=O)O)C(=O)N[C@@H]([C@@H](C)O)C(=O)N[C@@H](CC(C)C)C(=O)N2)C(N)=O)C(N)=O)CSSC1(C)C [compound 93] (I: Ac-[Pen][NMeR]SDTLC[Tic][dE][dK]-NH2 / II: Ac-[Pen][NMeR]SDTLC[Tic][dE][dK]-NH2; disulfide I:1-I:7, II:1-II:7; linker I:10-II:10 via Diglycolyl) | 0.5 to 1 µM
3 | CC(=O)N[C@@H]1C(=O)N(C)[C@@H](CCCNC(=N)N)C(=O)N[C@@H](CO)C(=O)N[C@@H](CC(=O)O)C(=O)N[C@@H]([C@@H](C)O)C(=O)N[C@@H](CC(C)C)C(=O)N[C@H](C(=O)N[C@@H](Cc2c[nH]c3ccccc23)C(=O)N2CCC[C@H]2C(=O)N[C@H](CCCCNC(=O)COCC(=O)NCCCC[C@@H](NC(=O)[C@@H]2CCCN2C(=O)[C@H](Cc2c[nH]c3ccccc23)NC(=O)[C@H]2NC(=O)[C@H](CC(C)C)NC(=O)[C@H]([C@@H](C)O)NC(=O)[C@H](CC(=O)O)NC(=O)[C@H](CO)NC(=O)[C@H](CCCNC(=N)N)N(C)C(=O)[C@@H](NC(C)=O)C(C)(C)SSC2(C)C)C(N)=O)C(N)=O)C(C)(C)SSC1(C)C [compound 94] (I: Ac-[Pen][NMeR]SDTL[Pen]WP[dK]-NH2 / II: Ac-[Pen][NMeR]SDTL[Pen]WP[dK]-NH2; disulfide I:1-I:7, II:1-II:7; linker I:10-II:10 via Diglycolyl) | 0.1 to 0.5 µM
4 | CC(=O)N[C@@H]1C(=O)N(C)[C@@H](CCCNC(=N)N)C(=O)N[C@@H](CO)C(=O)N[C@@H](CC(=O)O)C(=O)N[C@@H]([C@@H](C)O)C(=O)N[C@@H](CC(C)C)C(=O)N[C@H](C(=O)N[C@@H](Cc2c[nH]c3ccccc23)C(=O)N2CCC[C@H]2C(=O)N[C@@H](CCCCNC(=O)COCC(=O)NCCCC[C@H](NC(=O)[C@@H]2CCCN2C(=O)[C@H](Cc2c[nH]c3ccccc23)NC(=O)[C@H]2NC(=O)[C@H](CC(C)C)NC(=O)[C@H]([C@@H](C)O)NC(=O)[C@H](CC(=O)O)NC(=O)[C@H](CO)NC(=O)[C@H](CCCNC(=N)N)N(C)C(=O)[C@@H](NC(C)=O)C(C)(C)SSC2(C)C)C(N)=O)C(N)=O)C(C)(C)SSC1(C)C [compound 95] (I: Ac-[Pen][NMeR]SDTL[Pen]WPK-NH2 / II: Ac-[Pen][NMeR]SDTL[Pen]WPK-NH2; disulfide I:1-I:7, II:1-II:7; linker I:10-II:10 via Diglycolyl) | 0.1 to 0.5 µM
